Measurements from paper PMC11345829, “Discovery of Potent Isoquinolinequinone N-Oxides to Overcome Cancer Multidrug Resistance” (Journal of Medicinal Chemistry, 2024).
Read-outs that look alike come from different tables or passages of the source.

Columns and labels:
[1] = test system: NCI60 tumor cell line panel; test: NCI60 one-dose screen (10 μM), mean growth; assay type: cell-based, human; settings: for activity at 10 µM: Homo sapiens; for activity at 10 µM / mean growth (%, 10 μM): 48 h, one dose 10 μM, mean cell growth of 60 tumor cell lines
Method: (§1) S2.1 NCI Screening Assay Experimental details
(§2) NCI Screening Assay Experimental: Cancer cell growth assays (NCI60 screening) 5,6 One-dose study: Tested compounds were initially solubilised in DMSO, diluted into RPMI 1640 and 5% fetal bovine serum/L-glutamine, and added to 96-well plates containing cell lines previously cultured for 24 h. After 48 h incubation, the media were removed, and the cells were fixed and stained with sulforhodamine B to determine overall percent growth/ total protein content. Unbound dye was removed with five washes of 1% acetic acid, and the plates were allowed to air dry. The dye was then resolubilised in Tris buffer, and the colorimetric absorbance was measured (515 nm). Growth inhibition was measured relative to the response generated from proliferating cells cultured under identical conditions for 48 h. […]

[2] = test system: NCI60 tumor cell line panel; test: NCI60 five-dose screen, mean over panel; assay type: cell-based, human; settings: five dose
Source text: (§3) The concentration−response curve generated enables the determination of three criteria, GI50 (drug concentration at which 50% of cell growth is inhibited), total growth inhibition (TGI) and LC50 (drug concentration at which 50% of tumor cells are killed) which can be used to compare effectiveness against any compound tested in the screen since its inception.
as §1
(§4) NCI Screening Assay Experimental: Cancer cell growth assays (NCI60 screening) 5,6 One-dose study: Tested compounds were initially solubilised in DMSO, diluted into RPMI 1640 and 5% fetal bovine serum/L-glutamine, and added to 96-well plates containing cell lines previously cultured for 24 h. After 48 h incubation, the media were removed, and the cells were fixed and stained with sulforhodamine B to determine overall percent growth/ total protein content. Unbound dye was removed with five washes of 1% acetic acid, and the plates were allowed to air dry. The dye was then resolubilised in Tris buffer, and the colorimetric absorbance was measured (515 nm). Growth inhibition was measured relative to the response generated from proliferating cells cultured under identical conditions for 48 h. Data from one-dose experiments pertains to the percentage growth at […]
(§5) Five-dose study: Serial 5 × 10-fold dilution from an initial DMSO stock solution was performed, prior to incubation at each individual concentration (10 nM, 100 nM, 1 μM, 10 μM and 100 μM). Using seven absorbance measurements (time zero (Tz), control growth (C), and test growth in the presence of drug at the five concentration levels (Ti)), the percentage growth was calculated at each of the drug concentrations levels. Percentage growth inhibition was calculated as: [(Ti − Tz)/(C − Tz)] × 100 for concentrations for which Ti ≥ Tz, [(Ti − Tz)/Tz] × 100 for concentrations for which Ti < Tz. Three dose response parameters were calculated for each experimental agent. […]
(§6) was calculated from [(Ti − Tz)/(C − Tz)] × 100 = 50, which is the drug concentration resulting in a 50% reduction in the net protein increase (as measured by sulforhodamine B staining) in control cells during the drug incubation. The drug concentration resulting in total growth inhibition (TGI) was calculated from Ti = Tz. The LC50 (concentration of drug resulting in a 50% reduction in the measured protein at the end of the drug treatment as compared to that at the beginning) indicating a net loss of cells following treatment was calculated from [(Ti − Tz)/Tz] × 100 = −50. Values were calculated for each of these three parameters if the level of activity was reached; however, if the effect was not reached or was exceeded, the value for that parameter was expressed as greater or less than the maximum or minimum concentration tested.

[3] = test system: COLO-205; test: NCI60 five-dose GI50; assay type: cell-based; settings: Homo sapiens, colon
Source text: as §3, §1, §4, §5, §6

[4] = test system: K-562; test: NCI60 five-dose GI50; assay type: cell-based; settings: Homo sapiens, K562, five dose
Source text: as §3, §1, §4, §5, §6

[5] = test system: LOX-IMVI; test: NCI60 five-dose GI50; assay type: cell-based; settings: Homo sapiens, melanoma
Source text: as §3, §1, §4, §5, §6

[6] = test system: MCF-7; test: NCI60 five-dose GI50; assay type: cell-based; settings: Homo sapiens, MCF7, breast
Source text: as §3, §1, §4, §5, §6

[7] = test system: NCI-ADR/RES; test: NCI60 five-dose GI50; assay type: cell-based; settings: Homo sapiens, MDR ovarian
Source text: as §3, §1, §4, §5, §6

[8] = test system: OVCAR-3; test: NCI60 five-dose GI50; assay type: cell-based; settings: Homo sapiens, ovarian
Source text: as §3, §1, §4, §5, §6

[9] = test system: UACC-62; test: NCI60 five-dose GI50; assay type: cell-based; settings: Homo sapiens, melanoma
Source text: as §3, §1, §4, §5, §6

[10] = test system: OVCAR-8; test: NCI60 five-dose GI50; assay type: cell-based; settings: Homo sapiens, ovarian
Source text: as §3, §1
as §2, with “nm).” for “nm). Growth inhibition was measured relative to the response generated from proliferating cells cultured under identical conditions for 48 h.”
as §5, §6

[11] = Homo sapiens, across 57-60 cell lines (number given per compound), read-out: Mean of GI50 as Log 10 Concentration (SD) (converted)
[12] = mean over 52 human tumor cell lines common to all analogues, read-out: mean GI50

Row | Structure (SMILES) | activity at 10 µM [1] [%] | GI50 [2, 11] [µM] | GI50 [2, 12] [µM] | GI50 [3] [µM] | GI50 ([4]; leukemia) [µM] | GI50 [5] [µM] | GI50 [6] [µM] | GI50 [7] [µM] | GI50 [8] [µM] | GI50 [9] [µM] | GI50 [10] [µM] | mean growth (%, 10 μM) [1] [%] | one-dose screen outcome ([1]; 10 μM) | GI50 [4] [µM]
1 | COC(=O)c1c2c(c(C)[n+]([O-])c1C)C(=O)C(NCc1ccc(OC)cc1)=CC2=O [Compound 6] | 19 | 2.04 | 2.12 | 0.839 | 2.67 | 2.41 | 1.41 | 2.42 | 0.315 | 1.72 | 2.78 |  |  | 
2 | COC(=O)c1c2c(c(C)[n+]([O-])c1C)C(=O)C=C(NCc1ccc(OC)cc1)C2=O [Compound 7] | -34 | 1.53 | 0.9 | 0.325 | 0.491 | 0.408 | 0.3 | 0.419 | 0.284 | 0.374 | 0.452 | -34 |  | 
3 | COC(=O)c1c2c(c(C)[n+]([O-])c1C)C(=O)C(NCc1cccc(OC)c1)=CC2=O [Compound 8] | 23 | 2.21 | 2.29 | 1.1 | 2.98 | 2.36 | 1.65 | 2.36 | 0.512 | 1.7 | 2.52 |  |  | 
4 | COC(=O)c1c2c(c(C)[n+]([O-])c1C)C(=O)C=C(NCc1cccc(OC)c1)C2=O [Compound 9] | -52 | 0.607 | 0.74 | 0.252 | 0.416 | 0.302 | 0.286 | 0.441 | 0.259 | 0.306 | 0.339 | -52 |  | 
5 | COC(=O)c1c2c(c(C)[n+]([O-])c1C)C(=O)C(NCc1ccc(Cl)cc1)=CC2=O [Compound 10] | 57 |  |  |  |  |  |  |  |  |  |  |  | did not achieve sufficient growth inhibition | 
6 | COC(=O)c1c2c(c(C)[n+]([O-])c1C)C(=O)C=C(NCc1ccc(Cl)cc1)C2=O [Compound 11] | -32 | 0.412 | 0.55 | 0.238 | 0.058 | 0.039 | 0.267 | 0.267 | 0.208 | 0.055 | 0.292 | -32 |  | < 0.15
7 | COC(=O)c1c2c(c(C)[n+]([O-])c1C)C(=O)C(NCc1cccc(Cl)c1)=CC2=O [Compound 12] | 12 | 1.34 | 1.48 | 0.388 | 2.17 | 1.76 | 1.1 | 1.64 | 0.322 | 1.24 | 1.52 |  |  | 
8 | COC(=O)c1c2c(c(C)[n+]([O-])c1C)C(=O)C=C(NCc1cccc(Cl)c1)C2=O [Compound 13] | -42 | 0.405 | 0.62 | 0.263 | 0.109 | 0.094 | 0.27 | 0.352 | 0.243 | 0.144 | 0.297 | -42 |  | < 0.15
9 | COC(=O)c1c2c(c(C)[n+]([O-])c1C)C(=O)C(NCc1ccc(Br)cc1)=CC2=O [Compound 14] | 18 | 1.64 | 1.8 | 0.659 | 2.38 | 1.67 | 1.33 | 1.97 | 0.301 | 1.17 | 1.83 |  |  | 
10 | COC(=O)c1c2c(c(C)[n+]([O-])c1C)C(=O)C=C(NCc1ccc(Br)cc1)C2=O [Compound 15] | -50 | 0.515 | 0.78 | 0.313 | 0.047 | 0.084 | 0.289 | 0.439 | 0.273 | 0.046 | 0.465 | -50 |  | < 0.15
11 | COC(=O)c1c2c(c(C)[n+]([O-])c1C)C(=O)C(NCc1ccc(F)c(F)c1)=CC2=O [Compound 16] | 11 | 1.78 | 1.91 | 0.673 | 2.23 | 1.98 | 1.48 | 2.3 | 0.333 | 1.53 | 1.96 |  |  | 
12 | COC(=O)c1c2c(c(C)[n+]([O-])c1C)C(=O)C=C(NCc1ccc(F)c(F)c1)C2=O [Compound 17] | -49 | 0.421 | 0.58 | 0.26 | 0.113 | 0.064 | 0.29 | 0.345 | 0.258 | 0.068 | 0.299 | -49 |  | < 0.15
